# Assay results taken from ChEMBL document CHEMBL3872209, “Inhibitory activity evaluation and mechanistic studies of tetracyclic oxindole derivatives as α-glucosidase inhibitors” (Eur J Med Chem, 2016).
# Calls of active or inactive are those of the source. No cut-off for these calls is given here.
# How the values were obtained:
# [1] = Inhibition of Baker's yeast alpha-glucosidase using pNGP as substrate after 30 mins by spectrophotometric analysis; design: species or system Saccharomyces cerevisiae
# Saccharomyces cerevisiae [2] = assay: Binding affinity to Baker's yeast alpha-glucosidase assessed as reduction in enzyme surface hydrophobicity after 30 mins by Bis-ANS dye based spectrofluorometric method
# Saccharomyces cerevisiae [3] = assay: Binding affinity to Baker's yeast alpha-glucosidase at 5 to 50 uM after 30 mins by tryptophan fluorescence spectrophotometric method
# Saccharomyces cerevisiae [4] = assay: Irreversible inhibition of Baker's yeast alpha-glucosidase at 20 uM after 24 hrs by dialysis method
# Saccharomyces cerevisiae [5] = assay: Binding affinity to Baker's yeast alpha-glucosidase after 30 mins by tryptophan fluorescence spectrophotometric method
# Saccharomyces cerevisiae [6] = assay: Potency index, ratio of acarbose IC50 to compound IC50 for inhibition of Baker's yeast alpha-glucosidase
# Saccharomyces cerevisiae [7] = assay: Mixed type inhibition of Baker's yeast alpha-glucosidase at 1 to 1.5 uM using varying pNGP substrate levels preincubated for 30 mins followed by substrate addition by Lineweaver-Burk plot method
# Saccharomyces cerevisiae [8] = assay: […] inhibition of Baker's yeast alpha-glucosidase at 0.5 to 1 uM after 30 mins by Lineweaver-Burk plot method
IC50 [1] [µM],other results,Structure (SMILES)
51.5,–,Cc1cc2c(c3c1N(Cc1ccc(C(F)(F)F)cc1)C(=O)C3=O)C(CC(=O)O)Oc1ccccc1-2 (stereo not drawn)
12.1,–,COC(=O)CC1Oc2ccccc2-c2ccc3c(c21)C(=O)C(=O)N3Cc1ccccc1 (stereo not drawn)
5.2,–,Cc1c2c(cc3c1N(C)C(=O)C3=O)-c1ccccc1OC2CC(=O)Nc1ccc(-c2ccc(N)cc2)cc1 (stereo not drawn)
4,–,O=C(CC1Oc2ccccc2-c2ccc3c(c21)C(=O)C(=O)N3Cc1ccc(C(F)(F)F)cc1)Nc1ccccc1 (stereo not drawn)
160,–,Cc1c2c(cc3c1N(Cc1ccc(C(F)(F)F)cc1)C(=O)C3=O)-c1ccccc1OC2CC(=O)O (stereo not drawn)
4.4,–,O=C1C(=O)N(Cc2ccc(C(F)(F)F)cc2)c2ccc3c(c21)C(CC(=O)N1CCCCC1)Oc1ccccc1-3 (stereo not drawn)
> 300,–,Cc1c2c(cc3c1N(C)C(=O)C3=O)-c1ccccc1OC2CC(=O)O (stereo not drawn)
> 300,–,O=C1C(=O)N(Cc2ccc(C(F)(F)F)cc2)c2ccc3c(c21)C(CC(=O)N1CCOCC1)Oc1ccccc1-3 (stereo not drawn)
0.7,Activity (Saccharomyces cerevisiae [2]): Dose-dependent effect; Activity (Saccharomyces cerevisiae [3]): Active; inhibition (Saccharomyces cerevisiae [4]): Active; Activity (Saccharomyces cerevisiae [5]): Dose-dependent effect; Ratio IC50 (Saccharomyces cerevisiae [6]): 165 to 170; inhibition (Saccharomyces cerevisiae [7]): Active; inhibition (Saccharomyces cerevisiae [8]): Active,Nc1ccc(-c2ccc(NC(=O)CC3Oc4ccccc4-c4ccc5c(c43)C(=O)C(=O)N5Cc3ccc(C(F)(F)F)cc3)cc2)cc1 (stereo not drawn)
4.8,–,O=C(O)CC1Oc2ccccc2-c2ccc3c(c21)C(=O)C(=O)N3Cc1ccc(C(F)(F)F)cc1 (stereo not drawn)
80,–,O=C(O)CC1Nc2ccccc2-c2ccc3c(c21)C(=O)C(=O)N3Cc1ccc(C(F)(F)F)cc1 (stereo not drawn)
8.4,–,CN1C(=O)C(=O)c2c1ccc1c2C(CC(=O)Nc2ccc(-c3ccc(N)cc3)cc2)Nc2ccccc2-1 (stereo not drawn)
15.7,–,COC(=O)CC1Oc2ccccc2-c2ccc3c(c21)C(=O)C(=O)N3Cc1ccc(C(F)(F)F)cc1 (stereo not drawn)
16,–,O=C(O)CC1Oc2ccccc2-c2ccc3c(c21)C(=O)C(=O)N3Cc1ccccc1 (stereo not drawn)
105,–,COC(=O)CC1Oc2ccccc2-c2ccc3c(c21)C(=O)C(=O)N3C (stereo not drawn)
> 300,–,CNC(=O)CC1Oc2ccccc2-c2cc3c(c(C)c21)N(C)C(=O)C3=O (stereo not drawn)
11.8,–,CNC(=O)CC1Oc2ccccc2-c2ccc3c(c21)C(=O)C(=O)N3Cc1ccc(C(F)(F)F)cc1 (stereo not drawn)
32.3,–,COC(=O)CC1Oc2ccccc2-c2ccc3c(c21)C(=O)C(=O)N3Cc1ccc(OC)cc1 (stereo not drawn)

IC50 [1] [µM],other results,Structure (SMILES)
5.1,–,COc1ccc(NC(=O)CC2Oc3ccccc3-c3ccc4c(c32)C(=O)C(=O)N4Cc2ccc(C(F)(F)F)cc2)cc1 (stereo not drawn)
226,–,CN1C(=O)C(=O)c2c1ccc1c2C(CC(=O)Nc2ccccc2)Nc2ccccc2-1 (stereo not drawn)
18.5,–,COC(=O)CC1Oc2ccccc2-c2cc3c(c(C)c21)N(C)C(=O)C3=O (stereo not drawn)
162,–,CN(C)CCNC(=O)CC1Oc2ccccc2-c2ccc3c(c21)C(=O)C(=O)N3Cc1ccc(C(F)(F)F)cc1 (stereo not drawn)
4.6,–,O=C(CC1Nc2ccccc2-c2ccc3c(c21)C(=O)C(=O)N3Cc1ccc(C(F)(F)F)cc1)Nc1ccccc1 (stereo not drawn)
36.1,–,Cc1c2c(cc3c1N(C)C(=O)C3=O)-c1ccccc1OC2CC(=O)Nc1ccccc1 (stereo not drawn)
180,–,COC(=O)CC1Oc2ccccc2-c2cc3c(cc21)N(C)C(=O)C3=O (stereo not drawn)
43.9,–,NC(=O)CC1Oc2ccccc2-c2ccc3c(c21)C(=O)C(=O)N3Cc1ccc(C(F)(F)F)cc1 (stereo not drawn)
47.7,–,O=C(O)CC1Oc2ccccc2-c2ccc3c(c21)/C(=N/O)C(=O)N3Cc1ccc(C(F)(F)F)cc1 (stereo not drawn)
287,–,COC(=O)CC1Nc2ccccc2-c2ccc3c(c21)C(=O)C(=O)N3C (stereo not drawn)
1.9,–,Nc1ccc(-c2ccc(NC(=O)CC3Nc4ccccc4-c4ccc5c(c43)C(=O)C(=O)N5Cc3ccc(C(F)(F)F)cc3)cc2)cc1 (stereo not drawn)
26.3,–,COC(=O)CC1Oc2ccccc2-c2cc3c(c(C)c21)N(Cc1ccc(C(F)(F)F)cc1)C(=O)C3=O (stereo not drawn)
6.2,–,O=C(CC1Oc2ccccc2-c2ccc3c(c21)C(=O)C(=O)N3Cc1ccc(C(F)(F)F)cc1)Nc1ccc(O)cc1 (stereo not drawn)
37.2,–,COC(=O)CC1Nc2ccccc2-c2ccc3c(c21)C(=O)C(=O)N3Cc1ccc(C(F)(F)F)cc1 (stereo not drawn)
32.8,–,O=C1C(=O)N(Cc2ccc(C(F)(F)F)cc2)c2ccc3c(c21)C(CC(=O)N1CCNCC1)Oc1ccccc1-3 (stereo not drawn)
45.3,–,COC(=O)CC1Nc2ccccc2-c2ccc3c(c21)C(=O)C(=O)N3Cc1ccc(OC)cc1 (stereo not drawn)
187,–,CN1C(=O)C(=O)c2c1ccc1c2C(CC(=O)O)Nc2ccccc2-1 (stereo not drawn)
67,–,O=C(O)CC1Oc2ccccc2-c2ccc3c(c21)C(F)(F)C(=O)N3Cc1ccc(C(F)(F)F)cc1 (stereo not drawn)
